Source: patent US7087622B2, “Pyridone compounds as inhibitors of bacterial type III protein secreation systems” (priority 2004, dated 2006)

How the values were obtained:
Assay type in all cases: cell-based
[1] = system: SPI1 type III protein secretion system (SopE-Bla secretion); assay: Primary assay: Type III protein secretion of the chimeric SopE-Bla polypeptide by Salmonella enterica (nitrocefin hydrolysis); settings: read-out: SopE IC50(uM)
Summary of the method: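 Salmonella enterica grown under SPI1-favouring conditions, induced to express SopE–TEM-1 β-lactamase chimera, cultured with or without compound for a set time.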

[2] = system: SPI1 type III protein secretion system (SipB secretion); assay: Secondary assay: Type III-dependent protein secretion of the SipB polypeptide by S. enterica (immunoblot); settings: Salmonella enterica, read-out: SipB IC50(uM)
Summary of the method: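 S. enterica cultured with or without inhibitor and induced for SipB production; after growth, cells pelleted and secreted SipB in supernatant measured by immunoblot with anti-SipB mouse monoclonal plus HRP anti-mouse and chemiluminescence, quantified by scanning imager. Inhibition expressed relative to untreated controls.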

[3] = system: type III protein secretion system of P. aeruginosa PA103 (ExoU secretion); assay: Tertiary assay: Type III-dependent secretion of ExoU by P. aeruginosa PA103 (SDS-PAGE band quantitation); settings: Pseudomonas aeruginosa, ExoU secreted into extracellular medium
Text: Tertiary assay: inhibition of Type III protein secretion of effectors from a Pseudomonas aeruginosa system. Type III protein secretion is used by P. aeruginosa to secrete several essential virulence determinants. One effector of the type III protein secretion system of P. aeruginosa PA103 is the virulence determinants ExoU.
The amount of Type III-dependent secretion of ExoU by P. aeruginosa PA103 can be determined in a cell-based assay by quantification of the 73.9 kDa ExoU protein secreted into the extracellular medium. Such quantitation can be achieved by growing strain PA103 in a deferrated medium in the presence of nitrilotriacetic acid (an inducer of Type III protein secretion in P. aeruginosa) and either in the presence or absence of putative inhibitors. After a prolonged growth period, the cells are sedimented and the supernatants concentrated by ammonium sulfate precipitation. The proteins in the resuspended pellets are separated by electrophoresis on SDS-polyacrylamide gels. After staining gels with Colloidal Blue™, the 73.9 kDa ExoU band is quantitated by scanning through an imager. The effects of inhibitors on the intensity of the ExoU band may be measured relative to that of untreated controls.

| Compound | IC50 [1] | IC50 [2] | IC50 [3] |
| --- | --- | --- | --- |
| O=C(Nc1cc(-c2cccc3ccccc23)cn([C@@H](COCc2ccccc2)C(=O)O)c1=O)c1ccc(C(F)(F)F)cc1 [Compound 8, (S)-3-Benzyloxy-2-[5-naphthalen-1-yl-2-oxo-3-(4-trifluoromethylbenzoylamino)-2H-pyridin-1-yl]propionic acid] | 29.5 µM | 49.2 µM | > 100 µM |
| O=C(Nc1cc(-c2cccc3ccccc23)cn([C@@H](Cc2ccccc2)C(=O)O)c1=O)c1ccc(C(F)(F)F)cc1 [Compound 1, (S)-2-[5-Naphthalen-1-yl-2-oxo-3-(4-trifluoromethylbenzoylamino)-2H-pyridin-1-yl]-3-phenylpropionic acid] | 14.4 µM | 82.8 µM | 82.8 µM |
| O=C(Nc1cc(-c2ccc(Oc3ccccc3)cc2)cn([C@@H](COCc2ccccc2)C(=O)O)c1=O)c1ccc(C(F)(F)F)cc1 [Compound 9, (S)-3-Benzyloxy-2-[2-oxo-5-(4-phenoxyphenyl)-3-(4-trifluoromethyl-benzoylamino)-2H-pyridin-1-yl]propionic acid] | 10.1 µM | 26.2 µM | > 100 µM |
| O=C(Nc1cc(-c2cccc3c2sc2ccccc23)cn(C(Cc2ccc(Cl)cc2)C(=O)O)c1=O)c1ccc(C(F)(F)F)cc1 (stereo not drawn) [Compound 24, 3-(4-Chlorophenyl)-2-[5-dibenzothiophen-4-yl-2-oxo-3-(4-trifluoromethyl-benzoylamino)-2H-pyridin-1-yl]propionic acid] | 1.6 µM | 67.1 µM | 62.4 µM |
| O=Cc1ccc(-c2cc(NC(=O)c3ccc(C(F)(F)F)cc3)c(=O)n([C@@H](Cc3ccccc3)C(=O)O)c2)cc1 [Compound 5, (S)-2-[5-(4-Formylphenyl)-2-oxo-3-(4-trifluoromethylbenzoylamino)-2H-pyridin-1-yl]-3-phenylpropionic acid] | 49.9 µM | > 100 µM | > 100 µM |
